Experimental findings from article PMC11696576, “Next generation thiazolyl ketone inhibitors of cytosolic phospholipase A2 α for targeted cancer therapy” (Nature Communications, 2025) are described below.

The structures appear in SMILES notation. Several values for one entry are separate records, joined by “and”; a condition that tells them apart may be missing. Equal values may be shown once.

Data set [1] has as its system Jurkat E6.1 cells. Put plainly: cell viability, CTG assay, Jurkat E6.1. In kind it is cell-based, human. Particulars: for viability signal, raw values: Figure 6e. From the text: (§1) Data are the mean ± stdev of 3 biological replicates. […] Data are the mean ± stdev of 3 biological replicates.
Bjørn Tore Gjertsen (University of Bergen, Norway). […] The cell lines were not authenticated.

In data set [2] the test system is Jurkat E6.1 cells. Put plainly: intracellular ROS, ROS-red staining and flow cytometry, Jurkat E6.1. More on the design: ROS Negative Cells / ROS Negative Cells (Figure S9 a) / ROS Negative Cells (Figure S9c): unit not given here. Format: cell-based, human. The conditions noted are these: AA 20 µM; rep1, rep2. The method, then:
as §1
(§2) Rather, when combined with AVX420, exogenous AA augmented cell death (Fig. 6e). […] The response occurred within 1 h, peaked at 8–12 h, and preceded the loss of cell viability (Fig. S9a, b).
(§3) After treatment, cells were stained with cellular ROS Assay Kit (Cat. No. ab186029; Abcam, Cambridge, United Kingdom) following the manufacturer’s instructions, and ROS-positive cells were quantified by flow cytometry using either the NovoCyte flow cytometer, and Novoexpress Software v1.5.0 from Agilent Technologies (Santa Clara, USA) or the CytoFLEX flow cytometer and CytExpert analysis software v 2.5 from Beckman Coulter (California, United States). An example showing the gating strategy used to assess ROS-Red staining is found in Fig. S9d.

The test system of data set [3] is CCRF-CEM cells. Put plainly: cell viability, CTG assay, CCRF-CEM. Particulars: for viability signal, raw values: Figure 6e.
Protocol: Data are the mean ± stdev of 3 biological replicates. c Viability of healthy T-cells measured by propidium iodide (PI) exclusion. Data are the mean ± stdev of 8 biological replicates for 1–16 µM AVX420, 5 for 32 µM AVX420 and 2 for 0.5 µM Staurosporine (Stau). d Cell viability measured by CTG assay in cells preincubated with 2.5 mM glutathione (GSH) or 2.5 mM N-acetyl cysteine (NAC) for 30 min before addition of 0.5 or 1 µM AVX420, 0.06 µM RSL-3, or 0.06 µM ML-210 for 24 h. Data are the mean ± stdev of 3 biological replicates. P-values were determined by one-way ANOVA with Dunnett’s correction for multiple testing and **** indicates P < 0.0001. e Cell viability measured by CTG assay. CCRF-CEM or Jurkat cells were co-treated with 0.5 µM AVX420 and either arachidonic acid (AA) at concentrations ranging from 1 to 100 µM or a mixture of 9 eicosanoids: 6-keto prostaglandin F1α, Thromboxane B2, prostaglandin F2α, prostaglandin E2, prostaglandin D2, 12(S)-HHTrE, 15(S)-HETE,12(S)-HETE, 5(S)-HETE at a final concentration of 2 ng/mL each (EIC-mix) for 24 h. Data are the mean ± stdev of 3 biological replicates. P-values were determined by two-way ANOVA with Sidak’s correction for multiple comparisons. f Proportion of intracellular ROS-positive cells measured by ROS-red staining and flow cytometry. Cells were treated with indicated concentrations of AVX420 (µM), 1 mM H2O2, 1 µM RSL-3, or 1 µM doxorubicin (dox) for 4 h. Data are the mean ± stdev of 3 biological replicates. g Intracellular ROS measurements in CCRF-CEM cells treated with AVX420 (0.5 µM), AVX002 (8 µM), or AACOCF3 (8 µM) for 4 h.
All cell lines were confirmed to be free of mycoplasma contamination. The cell lines were not authenticated. MV-4-11 were cultured in Iscove’s Modified Dulbecco’s Medium (Sigma, I3390). CCRF-CEM, Jurkat E6.1, and HL-60 cells were cultured in RPMI 1640 Medium RPMI-1640 medium (Sigma, R5886).
Data set [4] has as its system isolated human PBMCs. Put plainly: eicosanoid release from A23187-stimulated PBMCs (ELISA). Format: cell-based. More on the design: 6-Keto PGF1a / 12-HETE: unit not given here. Particulars: 5 µM; for LTB4 level, PBMCs / PGE2 level, PBMCs / TxB2 level, PBMCs: A23187, individual replicate. The method, then:
In PBMCs, the calcium ionophore A23187 stimulated the release of PGE2, TXB2, LTB4, 6-keto prostaglandin F1α (PGF1α), and 12-HETE.
PBMCs were isolated from buffy coats using Lymphoprep as described by the manufacturer ([…] Technologies, Vancouver, Canada). Red blood cells were lysed and removed using RBC lysis buffer (Roche, Basel, Switzerland) and the remaining cells were resuspended in 10 mL of RPMI-1640 supplemented with 5% FBS. The TC20 automated cell counter (BIO-RAD, Hercules, California, USA) was used to count the number of cells and check the viability by staining with trypan blue (0.4%) (NanoEnTek, Waltham, MA, USA). For experiments, 5 × 10^5 cells were seeded in 0.5 mL in 24 well plates with RPMI medium supplemented with 5% FBS, 0.3 mg/mL glutamine, and 0.1 mg/mL gentamicin. Cells were preincubated with inhibitors for 2 h before incubating with 30 µM Ca^2+ ionophore A23187 for 15 min to activate cPLA2α. After incubation, the supernatant was obtained by centrifugation at 5992 × g for 10 min at 4° and stored at −80 °C until assayed for PGE2, LTB4, TxB2, 6-Keto PGF1α, and 12S-HETE using enzyme-linked immunosorbent assays (ELISAs) (Cayman #514435, Cayman #10009292, Cayman #501020, Cayman #15210, and Enzo Lifesciences #ADI-900-050). After an overnight hybridization, the enzymatic conversion of substrate was read at OD420 nm using a Cytation 5 multimode platereader (Biotek Instruments, Winooski, VT, USA). Standard curves fit using 4-parameter logistic regression in myassays.com were used to calculate eicosanoid concentrations.

For data set [5], the system named is whole blood. Put plainly: eicosanoid release from LPS-stimulated whole blood. In kind it is cell-based, human. More on the design: LTB4 / 5-HETE / 11,12-EET / 12-HETE: unit not given here. Particulars: for 15-HETE level, whole blood / PGE2 level, whole blood / TxB2 level, whole blood: individual replicate. From the text: In whole blood, bacterial lipopolysaccharide (LPS) stimulated the release of PGE2, thromboxane B2 (TXB2), and 15-hydroxyeicosatetraenoic acid (HETE). […] The levels of leukotriene B4 (LTB4), 12-HETE, 5-HETE and 11,12-epoxyeicosatrienoic acid (EET) were not affected by LPS stimulation but increased when exogenous AA was included, irrespective of the presence of GK420 (Fig. S1a).
Fig. 3 Ex vivo suppression of eicosanoid production by GK420. a Eicosanoid levels (pmol/mL) in the plasma of whole blood pretreated with vehicle (DMSO), 3, 10 or 30 µM GK420,) 10 µM arachidonyl trifluoromethyl ketone (ATK), or 1 μM indomethacin (Indo) before stimulation with 1 µg/mL LPS for 24 h. […] All box and whisker plots show the mean (center line), stdev (box), and min and max values (whiskers) from 4 biological replicates. P-values were determined using RM-one way ANOVA with Dunnett’s correction for multiple comparisons.
Aliquots of 0.4 mL of heparinized whole blood were mixed with 1.6 mL of serum-free RPMI cultivation medium with- or without indomethacin (# I7378, Sigma-Aldrich), GK420, or arachidonyl trifluoromethyl ketone (ATK) (Cayman #62120), prior to the addition of lipopolysaccharides (LPS) (1 μg/mL) to activate the cPLA2α enzyme (LPS was from E. coli 026:B6 γ-irradiated, #L2654, Sigma-Aldrich). Exogenous arachidonic acid (5–10 µM) (#3555, Sigma-Aldrich) was added after 23.5 h, for the final 30 mins of the 24 h stimulation. Following treatment (24 h, 37 °C, 5% CO2), the diluted blood was centrifuged (5992 × g for 10 min at 4 °C) to isolate the plasma from the cell fraction. Plasma samples were stored at −80 °C until analysis. Samples were analyzed at the Lipid Maps Consortium, UCSD according to the standard methods. 200 µL of sample was subjected to solid phase extraction of the eicosanoids using the StrataX solid phase extraction columns from Phenomenex and analyzed by UHPLC-MS/MS using full standards mix.

In data set [6] the test system is CCRF-CEM cells. Put plainly: intracellular ROS, ROS-red staining and flow cytometry, CCRF-CEM. Format: cell-based, human. Particulars: CCRF-CEM, 8 µM, 4 h. The method, then: as §1, §2, §3
Figure S9. Intracellular ROS accumulation and cell death. a. Time dependency of the in-crease in iROS following treatment with AVX420 in CCRF-CEM cells as measured by ROS-red stain-ing. Data are the mean ±stdev from ≥2 biological replicates b. […]
±stdev of ≥2 biological replicates c. intracellular ROS measurements in CCRF-CEM cells treated with 0.5 µM AVX420 in the presence of 20 µM arachidonic acid (AA) or 5 µM liproxstatin (Lip) for 4 hours. Data are the mean ± stdev of 2 biological replicates. d. […]
analysis of ROS Red staining by flow cytometry. (i) Gating of live cells using FSC-H versus SSC-H.
(ii) Gating based on ROS Deep Red staining under control conditions and after treatment with (iii) […]
(1 picture or pasted object on this page, not shown here)
On the technique in general: A flow cytometer gives signals particle by particle.

With `CCCCC/C=C\C/C=C\C/C=C\C/C=C\CCCC(=O)O` [AA], the “viability signal, raw values” in data set [1] (Jurkat E6.1, AA-1, CTRL (no AVX420)) was 945477,333333333 and 910583,466666667 and 794162,5; in data set [1] (Jurkat E6.1, AA-5, CTRL (no AVX420)), 896908,333333333 and 842500,133333333 and 777643; in data set [1] (Jurkat E6.1, AA-10, CTRL (no AVX420)), 858625 and 837920,133333333 and 768078,5; in data set [1] (Jurkat E6.1, AA-20, CTRL (no AVX420)) it was 835050 and 861305,466666667 and 719180; in data set [3] (AA-1, CTRL (no AVX420)), 846644,033333333 and 824265,666666667 and 673546,5; in data set [3] (AA-5, CTRL (no AVX420)) it was 927085,7 and 753657,333333333 and 655816,5. Further, the “viability signal, raw values” in data set [3] (AA-10, CTRL (no AVX420)) is 862846,7 and 802148,333333333 and 667006,5; in data set [3] (AA-20, CTRL (no AVX420)), 903682,366666667 and 709873,666666667 and 638998,5; in data set [3] (AA-100, CTRL (no AVX420)) it was 925589,000333333 and 600588 and 592437,5. Also, the “ROS Negative Cells (Figure S9c)” value in data set [2] is 97 and 95. The “ROS Positive Cells (Figure S9c)” value in data set [2] is 3 and 5.

Regarding `COc1ccc2cc([C@H](C)C(=O)O)ccc2c1` [Naproxen, naproxen, reference compound], in data set [4], the “LTB4 level, PBMCs” value was 580.9 pg/mL and 678 pg/mL and 1105.1 pg/mL and 392.2 pg/mL; the “PGE2 level, PBMCs” value was 99.6 pg/mL and 53.1 pg/mL and 27.7 pg/mL and 49.6 pg/mL; the “TxB2 level, PBMCs” value is 2252.6 pg/mL and 716 pg/mL and 281.3 pg/mL and 1975.1 pg/mL.

In the case of `COc1ccc2c(c1)c(CC(=O)O)c(C)n2C(=O)c1ccc(Cl)cc1` [Indo, indomethacin], in data set [5] (1 uM + LPS + AA), the 5-HETE was 68.97 and 43.93 and 45.12 and 44.17; the “11,12-EET” value is 9.56 and 11.87 and 10.26 and 11.6; the 12-HETE is 64.2 and 109.5 and 89.5 and 60.3; the LTB4 is 0.4 and 0.7 and 0.5. In data set [5] (1 uM + LPS + AA), the “15-HETE level, whole blood” value was 61.7 pmol/mL and 75.64 pmol/mL and 71.47 pmol/mL and 74.74 pmol/mL; the “PGE2 level, whole blood” value is 11.3 pmol/mL and 12.8 pmol/mL and 10.1 pmol/mL and 11.1 pmol/mL; the “TxB2 level, whole blood” value was 1.2 pmol/ml (2×) and 1.6 pmol/ml and 1 pmol/ml. In data set [5] (1 uM + LPS), the “15-HETE level, whole blood” value is 0.16 pmol/mL and 0.77 pmol/mL and 0.18 pmol/mL and 0.15 pmol/mL; the “PGE2 level, whole blood” value was 0.05 pmol/mL; the “TxB2 level, whole blood” value is 0.05 pmol/ml (3×) and 0.1 pmol/ml. For the same molecule, the “production of PGE2 and TXB2” value in data set [5] (whole blood, LPS, in the absence and presence of exogenous free AA) is listed as “suppressed the production”.

Consider `Cc1ccc(-c2cc(C(F)(F)F)nn2-c2ccc(S(N)(=O)=O)cc2)cc1` [Celecoxib, celecoxib, reference compound], for which, in data set [4], the “LTB4 level, PBMCs” value is 120.7 pg/mL and 156.9 pg/mL and 348.2 pg/mL and 111.7 pg/mL; the “PGE2 level, PBMCs” value was 146.1 pg/mL and 36.8 pg/mL and 25.1 pg/mL and 59.9 pg/mL; the “TxB2 level, PBMCs” value was 2358.3 pg/mL and 690.2 pg/mL and 212.9 pg/mL and 1753.1 pg/mL.

As for `CCCCC/C=C\C/C=C\C/C=C\C/C=C\CCCC(=O)C(F)(F)F` [ATK, arachidonyl trifluoromethyl ketone], in data set [5] (10 uM + LPS + AA), the 5-HETE is 62.15 and 48.84 and 43.16 and 63.64; the “11,12-EET” value was 12.43 and 12.11 and 11.23 and 10.37; the 12-HETE is 131.5 and 102.1 and 99.1 and 71.1; the LTB4 was 0.7 and 0.6 and 0.8 and 0.5. Further, in data set [5] (10 uM + LPS + AA), the “15-HETE level, whole blood” value was 74.26 pmol/mL and 68.85 pmol/mL and 74.36 pmol/mL and 63.52 pmol/mL; the “PGE2 level, whole blood” value is 16.3 pmol/mL and 19.3 pmol/mL and 11.3 pmol/mL and 11.2 pmol/mL; the “TxB2 level, whole blood” value is 13.1 pmol/mL and 35.6 pmol/mL and 22.8 pmol/mL and 21.1 pmol/mL. For the same molecule, in data set [5] (10 uM + LPS), the “15-HETE level, whole blood” value was 0.26 pmol/mL and 1.13 pmol/mL and 0.31 pmol/mL and 0.48 pmol/mL; the “PGE2 level, whole blood” value is 0.1 pmol/mL and 2.4 pmol/mL and 0.5 pmol/mL and 1.1 pmol/mL; the “TxB2 level, whole blood” value is 1.2 pmol/mL and 9.9 pmol/mL and 2.1 pmol/mL and 3.4 pmol/mL. The “intracellular ROS (iROS)” value in data set [6] is recorded as “increased iROS”.

Take `COC(=O)c1ccc([C@@H]2c3[nH]c4ccccc4c3C[C@@H](C(=O)OC)N2C(=O)CCl)cc1` [RSL-3]: the “cell viability (Control = 100)” value is 40 and 34 and 26 in data set [1] (Jurkat cells, 0.06 µM, VEH); 29 and 32 and 36 in data set [3] (0.06 µM, VEH).

`CC(Cc1ccc(O)c(O)c1)C(C)Cc1ccc(O)c(O)c1` (stereo not shown) [NDGA, nordihydroguaiaretic acid, reference compound]: in data set [4], the “LTB4 level, PBMCs” value was 125.8 pg/mL and 134 pg/mL and 192.1 pg/mL and 116.5 pg/mL; the “PGE2 level, PBMCs” value is 307.5 pg/mL and 191.3 pg/mL and 70.7 pg/mL and 334.8 pg/mL; the “TxB2 level, PBMCs” value is 14617 pg/mL and 11007 pg/mL and 1627.4 pg/mL and 14685.3 pg/mL. Further, in data set [4] (A23187 stimulated), the “6-Keto PGF1a” value is 23.4 and 36.1; the 12-HETE is 69724.1 and 75249.5 and 44247.8.
